pEC50: −log10 of the molar value.

The text below walks through data of patent US7741351B2, “Compounds which potentiate glutamate receptor and uses thereof in medicine” (Glaxo Group Limited, priority 2004, dated 2010).

This assay has as its target T1, human GluR2 flip (unedited) AMPA receptor subunit (Homo sapiens, UniProt P42262).
T1 construct: expressed in transfected cells
Briefly: Calcium influx fluorescence assay (FLUO4, potentiation of glutamate response). The class given is cell-based. Conditions: Assay a); HEK 293 cells expressing human GluR2 flip (unedited); 100 μM glutamate final; peak fluorescence. The procedure: The ability of the compounds of the invention to potentiate glutamate receptor-mediated response were determined a) by using fluorescent calcium-indicator dyes such as FLUO4 and b) by measuring glutamate-evoked current recorded from human GluR2 flip unedited HEK293 cells.
a) Calcium Influx Fluorescence Assay
384 well plates were prepared containing confluent monolayer of HEK 293 cells either stably expressing or transiently transfected with human GluR2 flip (unedited) AMPA receptor subunit. These cells form functional homotetrameric AMPA receptors. […]
The cell plate was then transferred into a fluorescence imaging plate based reader [such as the FLIPR384 (Molecular Devices)]. A baseline fluorescence reading was taken over a 10 to 240 second period, and then 10 μL from each plate containing a compound of the invention made up in standard buffer solution (in a concentration range from 100 μM to 10 pM) was added (to give a final concentration in the range 30 μM to 3 pM). The fluorescence was read over 5 minute period. […] The fluoresecence was then read over a 4 minute period. The activities of the compounds of the invention and reference compounds were determined by measuring peak fluorescence after the last addition. The activity can also be expressed relative to the fluorescence increase induced by cyclothiazide at their maximum response (i.e. greater than 30 μM).

T1 sequence (P42262 25-883 isoform P42262-2 limits assumed): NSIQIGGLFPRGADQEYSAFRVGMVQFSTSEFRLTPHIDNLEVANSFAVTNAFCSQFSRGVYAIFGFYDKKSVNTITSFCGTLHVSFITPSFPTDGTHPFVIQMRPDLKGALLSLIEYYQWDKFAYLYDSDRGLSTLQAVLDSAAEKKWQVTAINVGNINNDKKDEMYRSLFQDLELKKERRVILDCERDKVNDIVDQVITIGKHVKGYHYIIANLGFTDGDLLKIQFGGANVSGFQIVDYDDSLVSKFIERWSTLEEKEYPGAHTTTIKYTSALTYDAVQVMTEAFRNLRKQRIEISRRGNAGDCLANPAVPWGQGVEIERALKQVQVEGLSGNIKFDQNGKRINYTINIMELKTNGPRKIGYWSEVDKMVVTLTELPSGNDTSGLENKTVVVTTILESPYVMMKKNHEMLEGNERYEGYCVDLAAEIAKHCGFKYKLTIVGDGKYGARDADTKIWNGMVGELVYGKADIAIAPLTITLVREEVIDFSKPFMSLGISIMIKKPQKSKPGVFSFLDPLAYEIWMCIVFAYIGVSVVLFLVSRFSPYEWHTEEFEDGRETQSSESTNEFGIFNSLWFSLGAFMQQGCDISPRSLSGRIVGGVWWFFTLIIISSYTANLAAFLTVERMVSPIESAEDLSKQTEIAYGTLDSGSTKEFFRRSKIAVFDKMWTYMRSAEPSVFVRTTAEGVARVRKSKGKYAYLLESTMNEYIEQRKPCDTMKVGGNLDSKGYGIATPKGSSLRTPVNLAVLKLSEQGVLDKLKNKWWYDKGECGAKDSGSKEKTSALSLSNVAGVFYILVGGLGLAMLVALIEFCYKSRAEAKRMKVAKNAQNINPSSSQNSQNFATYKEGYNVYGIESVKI

Consider `CCS(=O)(=O)Nc1cccc(-c2ccc3c(c2)CC(NS(=O)(=O)C(C)C)C3)c1` (stereo not shown) [Example 6, N-(5-{3-[(ethylsulfonyl)amino]phenyl}-2,3-dihydro-1H-inden-2-yl)-2-propanesulfonamide], for which the pEC50 was 5.50.

In general, pEC50 refers to the EC50 on a negative log10 scale, so that one unit is a factor of ten.
